One assay relates to MAIT cells. In words: mBSA-induced arthritis in wild type mice treated with Ac6FP or PBS. It counts as in vivo. Particulars: wild type male mice, intraperitoneal twice a week. From the text:
Arthritis was induced by intra-articular injection of methylated bovine serum albumin (mBSA) in MR1^−/− (depleted in MAIT cells) and wild type C57BL/6 mice, previously immunized with mBSA. We included 9 mice in each group, only females, which were 6 to 8 weeks old. Mice were daily evaluated for signs of joint inflammation, assessed by measuring tarsal thickness and scored on a scale of 0-4, where 0=no change, 1=local swelling and redness of digits, 2=mild swelling and redness, 3=severe swelling and redness, 4=necrosis. Mice were sacrificed on day 8, and the paws were separated, fixed with 4% paraformaldehyde and decalcified for histopathological assessment. All mice developed arthritis, with a peak of inflammation at day 1.
Arthritis was induced by intra-articular injection of methylated bovine serum albumin (mBSA) in wild type mice, treated with Acetyl-6-formylpterin (Ac6FP), a non-activating ligand of MAIT cells or PBS, previously immunized with mBSA. Ac6FP or PBS were injected twice a week in intraperitoneal. We included 6 wild type mice in each group, only males, which were 8 weeks old. Mice were daily evaluated as described previously. All mice developed arthritis, with a peak of inflammation at day 1.
Values are the mean+/−SEM of 6 mice in each group. Test: Student T test. Ac6FP: Acetyl-6-formylpterin. AUC: Area Under Curve. […]

The test system of the next assay is rheumatoid arthritis. Particulars: cited from earlier work.

`CC(=O)Nc1nc2ncc(C=O)nc2c(=O)[nH]1` [Ac6FP, Acetyl-6-formylpterin]: in the assay with MAIT cells (daily evaluation), the “clinical score (scale 0-4) compared to PBS group” value is “lower clinical score”. Besides, the “area under curve (AUC) of clinical score, median” value in the assay with MAIT cells (n=6, vs. 5.5 in PBS group, p=0.07) is reported as 3.
On to `CN(Cc1cnc2nc(N)nc(N)c2n1)c1ccc(C(=O)N[C@@H](CCC(=O)O)C(=O)O)cc1` [MTX, methotrexate], for which the “patients reaching remission states” value in the assay on rheumatoid arthritis (RA patients at 6-12 months) is reported as 10-20%. In addition, in the assay with rheumatoid arthritis (early RA patients, with or without corticosteroids), the “patients reaching low disease activity states” value was 25-50%.

(Values after patent publication US20260069594A1, “USE OF AN AGENT CAPABLE OF INHIBITING THE ACTIVATION OF MAIT CELLS FOR THE TREATMENT OF RHEUMATOID ARTHRITIS” (INSTITUT NATIONAL DE LA SANTÉ ET DE LA RECHERCHE MÉDICALE, priority 2022, published 2026).)
